Measured values as given in patent publication US8741836B2, “Polypeptides” (Novo Nordisk A/S, priority 2011, dated 2014).
Starred links: 1 amine or outer side, 2 acyl side, 3 side chain; linkers in the order of their positions; H or OH if unused. Positions of bridges follow the written chain, without caps; N, C: chain ends. Residues, ends and D or L forms follow the SMILES beside them. *: point of attachment. C20 diacid = O=C(O)CCCCCCCCCCCCCCCCCCC(=O)*; C18 diacid = O=C(O)CCCCCCCCCCCCCCCCC(=O)*; γGlu = O=C(O)[C@H](CCC(=O)[*:2])N[*:1]

Experiments:
ad libitum fed rat = assay: Assay (I) efficacy testing on appetite (food intake) using an ad libitum fed rat model; type: in vivo, Sprague Dawley (SD) rats
Method in brief: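 Ad libitum fed Sprague Dawley rats, 200-250 g, singly housed on reversed light cycle, got one ip, po or sc dose of 0.01-3 mg/kg just before lights off; groups of 5-8 with vehicle control. Food intake recorded hourly for 7 h, then at 24 h and sometimes 48 h; Grubbs outliers excluded.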

[1] = Assay (III) ThT fibrillation assay for physical stability; type: physicochemical; settings: for ThT pH 4.0 lag time: pH 4.0, ThT fibrillation assay
Method in brief: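 Freshly prepared, pH-adjusted formulations with 1 μM ThT incubated at 37 °C under 960 rpm orbital shaking (1 mm), fluorescence (ex 444, em 485 nm) read every 20 min. […] Peptide content before and after measured by reverse-phase HPLC against pramlintide standard.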

ThT pH 4.0 lag time [1] | ThT pH 4.0 lag time (physical stability in fibrillogenesis assay) [1] | SMILES | Food intake reduction 0-24 h 3 nmol/kg (%) (ad libitum fed rat; 0-24 h) | Food intake reduction 24-48 h 3 nmol/kg (%) (ad libitum fed rat; 24-48 h) | Food intake reduction 0-24 h 30 nmol/kg (%) (ad libitum fed rat; 30 nmol/kg, 0-24 h) | Food intake reduction 24-48 h 30 nmol/kg (%) (ad libitum fed rat; 30 nmol/kg, 24-48 h)
37 h | – | CC[C@H](C)[C@H](NC(=O)[C@@H]1CCCN1C(=O)CNC(=O)[C@H](Cc1ccccc1)NC(=O)[C@H](CC(N)=O)NC(=O)[C@H](CC(N)=O)NC(=O)[C@H](CO)NC(=O)[C@H](CO)NC(=O)[C@H](Cc1c[nH]cn1)NC(=O)[C@H](Cc1c[nH]cn1)NC(=O)[C@H](CC(C)C)NC(=O)[C@H](Cc1ccccc1)NC(=O)[C@H](CCC(=O)O)NC(=O)[C@H](C)NC(=O)[C@H](CC(C)C)NC(=O)[C@H](CCCNC(=N)N)NC(=O)[C@H](CCC(N)=O)NC(=O)[C@@H](NC(=O)[C@H](C)NC(=O)[C@@H]1CSSC[C@H](NC(=O)[C@H](CCCCN)NC(=O)CC[C@H](NC(=O)CCCCCCCCCCCCCCCCCCC(=O)O)C(=O)O)C(=O)N[C@@H](CC(N)=O)C(=O)N[C@@H]([C@@H](C)O)C(=O)N[C@@H](C)C(=O)N[C@@H]([C@@H](C)O)C(=O)N1)[C@@H](C)O)C(=O)N[C@@H](CC(C)C)C(=O)N1CCC[C@H]1C(=O)N1CCC[C@H]1C(=O)N[C@H](C(=O)N[C@@H](CC(N)=O)C(=O)N[C@H](C(=O)NCC(=O)N[C@@H](CO)C(=O)N[C@@H](Cc1c[nH]cn1)C(=O)N[C@H](C(=O)N[C@@H](Cc1ccc(O)cc1)C(N)=O)[C@@H](C)O)C(C)C)[C@@H](C)O [Example 55, N-alpha-[(S)-4-Carboxy-4-(19-carboxynonadecanoylamino)butyryl]-[Glu14,His17,His35]-pramlintide] ({C20 diacid-γGlu}-KCNTATCATQRLAEFLHHSSNNFGPILPPTNVGSHTY-NH2; disulfide 2-7 (inferred)) | 58% | 40% | 88% | 90%
>45 h | – | CC[C@H](C)[C@H](NC(=O)[C@@H]1CCCN1C(=O)CNC(=O)[C@H](Cc1ccccc1)NC(=O)[C@H](CC(N)=O)NC(=O)[C@H](CC(N)=O)NC(=O)[C@H](CO)NC(=O)[C@H](CO)NC(=O)[C@H](Cc1c[nH]cn1)NC(=O)[C@H](CCCNC(=N)N)NC(=O)[C@H](CC(C)C)NC(=O)[C@H](Cc1ccccc1)NC(=O)[C@H](CCC(=O)O)NC(=O)[C@H](C)NC(=O)[C@H](CC(C)C)NC(=O)[C@H](CCCNC(=N)N)NC(=O)[C@H](CCC(N)=O)NC(=O)[C@@H](NC(=O)[C@H](C)NC(=O)[C@@H]1CSSC[C@H](NC(=O)[C@H](CCCCN)NC(=O)CC[C@H](NC(=O)CCCCCCCCCCCCCCCCCCC(=O)O)C(=O)O)C(=O)N[C@@H](CC(N)=O)C(=O)N[C@@H]([C@@H](C)O)C(=O)N[C@@H](C)C(=O)N[C@@H]([C@@H](C)O)C(=O)N1)[C@@H](C)O)C(=O)N[C@@H](CC(C)C)C(=O)N1CCC[C@H]1C(=O)N1CCC[C@H]1C(=O)N[C@H](C(=O)N[C@@H](CC(N)=O)C(=O)N[C@H](C(=O)NCC(=O)N[C@@H](CO)C(=O)N[C@@H](Cc1c[nH]cn1)C(=O)N[C@H](C(=O)N[C@@H](Cc1ccc(O)cc1)C(N)=O)[C@@H](C)O)C(C)C)[C@@H](C)O [Example 57, N-alpha-[(S)-4-Carboxy-4-(19-carboxynonadecanoylamino)butyryl]-[Glu14,Arg17,His35]-pramlintide] ({C20 diacid-γGlu}-KCNTATCATQRLAEFLRHSSNNFGPILPPTNVGSHTY-NH2; disulfide 2-7 (inferred)) | 17% | 0% | – | –
>45 h | >45 h | CC[C@H](C)[C@H](NC(=O)[C@@H]1CCCN1C(=O)CNC(=O)[C@H](Cc1ccccc1)NC(=O)[C@H](CC(N)=O)NC(=O)[C@H](CC(N)=O)NC(=O)[C@H](CO)NC(=O)[C@H](CO)NC(=O)[C@H](Cc1c[nH]cn1)NC(=O)[C@H](Cc1c[nH]cn1)NC(=O)[C@H](CC(C)C)NC(=O)[C@H](Cc1ccccc1)NC(=O)[C@H](CCC(=O)O)NC(=O)[C@H](C)NC(=O)[C@H](CC(C)C)NC(=O)[C@H](CCCNC(=N)N)NC(=O)[C@H](CCC(N)=O)NC(=O)[C@@H](NC(=O)[C@H](C)NC(=O)[C@@H]1CSSC[C@H](NC(=O)[C@H](CCCCN)NC(=O)CC[C@H](NC(=O)CCCCCCCCCCCCCCCCC(=O)O)C(=O)O)C(=O)N[C@@H](CC(N)=O)C(=O)N[C@@H]([C@@H](C)O)C(=O)N[C@@H](C)C(=O)N[C@@H]([C@@H](C)O)C(=O)N1)[C@@H](C)O)C(=O)N[C@@H](CC(C)C)C(=O)N1CCC[C@H]1C(=O)N1CCC[C@H]1C(=O)N[C@H](C(=O)N[C@@H](CC(N)=O)C(=O)N[C@H](C(=O)NCC(=O)N[C@@H](CO)C(=O)N[C@@H](Cc1c[nH]cn1)C(=O)N[C@H](C(=O)N[C@@H](Cc1ccc(O)cc1)C(N)=O)[C@@H](C)O)C(C)C)[C@@H](C)O [Example 59, N-alpha-[(S)-4-Carboxy-4-(17-carboxyheptadecanoylamino)butyryl]-[Glu14,His17,His35]-pramlintide] ({C18 diacid-γGlu}-KCNTATCATQRLAEFLHHSSNNFGPILPPTNVGSHTY-NH2; disulfide 2-7) | 59% | 27% | – | –

Further lines, the compound ahead of its results:

SMILES | ThT pH 4.0 lag time [1] | ThT pH 4.0 lag time (physical stability in fibrillogenesis assay) [1] | Food intake reduction 0-24 h 3 nmol/kg (%) (ad libitum fed rat; 0-24 h) | Food intake reduction 24-48 h 3 nmol/kg (%) (ad libitum fed rat; 24-48 h) | Food intake reduction 0-24 h 30 nmol/kg (%) (ad libitum fed rat; 30 nmol/kg, 0-24 h) | Food intake reduction 24-48 h 30 nmol/kg (%) (ad libitum fed rat; 30 nmol/kg, 24-48 h)
CC[C@H](C)[C@H](NC(=O)[C@@H]1CCCN1C(=O)CNC(=O)[C@H](Cc1ccccc1)NC(=O)[C@H](CC(N)=O)NC(=O)[C@H](CC(N)=O)NC(=O)[C@H](CO)NC(=O)[C@H](CO)NC(=O)[C@H](Cc1c[nH]cn1)NC(=O)[C@H](CCCNC(=N)N)NC(=O)[C@H](CC(C)C)NC(=O)[C@H](Cc1ccccc1)NC(=O)[C@H](CCC(=O)O)NC(=O)[C@H](C)NC(=O)[C@H](CC(C)C)NC(=O)[C@H](CCCNC(=N)N)NC(=O)[C@H](CCC(N)=O)NC(=O)[C@@H](NC(=O)[C@H](C)NC(=O)[C@@H]1CSSC[C@H](NC(=O)[C@H](CCCCN)NC(=O)CC[C@H](NC(=O)CCCCCCCCCCCCCCCCCCC(=O)O)C(=O)O)C(=O)N[C@@H](CC(N)=O)C(=O)N[C@@H]([C@@H](C)O)C(=O)N[C@@H](C)C(=O)N[C@@H]([C@@H](C)O)C(=O)N1)[C@@H](C)O)C(=O)N[C@@H](CC(C)C)C(=O)N1CCC[C@H]1C(=O)N1CCC[C@H]1C(=O)N[C@H](C(=O)N[C@@H](CC(N)=O)C(=O)N[C@H](C(=O)NCC(=O)N[C@@H](CO)C(=O)N[C@@H](CC(N)=O)C(=O)N[C@H](C(=O)N[C@@H](Cc1ccc(O)cc1)C(N)=O)[C@@H](C)O)C(C)C)[C@@H](C)O [Example 50, N-alpha-[(S)-4-Carboxy-4-(19-carboxynonadecanoylamino)butyryl]-[Glu14,Arg17]-pramlintide] ({C20 diacid-γGlu}-KCNTATCATQRLAEFLRHSSNNFGPILPPTNVGSNTY-NH2; disulfide 2-7 (inferred); C-terminus assumed) | >45 h | – | 30% | 8% | – | –
CC[C@H](C)[C@H](NC(=O)[C@@H]1CCCN1C(=O)CNC(=O)[C@H](Cc1ccccc1)NC(=O)[C@H](CC(N)=O)NC(=O)[C@H](CC(N)=O)NC(=O)[C@H](CO)NC(=O)[C@H](CO)NC(=O)[C@H](Cc1c[nH]cn1)NC(=O)[C@H](Cc1c[nH]cn1)NC(=O)[C@H](CC(C)C)NC(=O)[C@H](Cc1ccccc1)NC(=O)[C@H](CCC(=O)O)NC(=O)[C@H](C)NC(=O)[C@H](CC(C)C)NC(=O)[C@H](CCCNC(=N)N)NC(=O)[C@H](CCC(N)=O)NC(=O)[C@@H](NC(=O)[C@H](C)NC(=O)[C@@H]1CSSC[C@H](NC(=O)[C@H](CCCCN)NC(=O)CC[C@H](NC(=O)CCCCCCCCCCCCCCCCCCC(=O)O)C(=O)O)C(=O)N[C@@H](CC(N)=O)C(=O)N[C@@H]([C@@H](C)O)C(=O)N[C@@H](C)C(=O)N[C@@H]([C@@H](C)O)C(=O)N1)[C@@H](C)O)C(=O)N[C@@H](CC(C)C)C(=O)N1CCC[C@H]1C(=O)N1CCC[C@H]1C(=O)N[C@H](C(=O)N[C@@H](CC(N)=O)C(=O)N[C@H](C(=O)NCC(=O)N[C@@H](CO)C(=O)N[C@@H](CC(N)=O)C(=O)N[C@H](C(=O)N1CCC[C@H]1C(N)=O)[C@@H](C)O)C(C)C)[C@@H](C)O [Example 52, N-alpha-[(S)-4-Carboxy-4-(19-carboxynonadecanoylamino)butyryl]-[Glu14,His17,Pro37]-pramlintide] ({C20 diacid-γGlu}-KCNTATCATQRLAEFLHHSSNNFGPILPPTNVGSNTP-NH2; disulfide 2-7) | >45 h | – | 62% | 74% | – | –
CC[C@H](C)[C@H](NC(=O)[C@@H]1CCCN1C(=O)CNC(=O)[C@H](Cc1ccccc1)NC(=O)[C@H](CC(N)=O)NC(=O)[C@H](CC(N)=O)NC(=O)[C@H](CO)NC(=O)[C@H](CO)NC(=O)[C@H](Cc1c[nH]cn1)NC(=O)[C@H](CCCNC(=N)N)NC(=O)[C@H](CC(C)C)NC(=O)[C@H](Cc1ccccc1)NC(=O)[C@H](CCC(=O)O)NC(=O)[C@H](C)NC(=O)[C@H](CC(C)C)NC(=O)[C@H](CCCNC(=N)N)NC(=O)[C@H](CCC(N)=O)NC(=O)[C@@H](NC(=O)[C@H](C)NC(=O)[C@@H]1CSSC[C@H](NC(=O)[C@H](CCCCN)NC(=O)CC[C@H](NC(=O)CCCCCCCCCCCCCCCCCCC(=O)O)C(=O)O)C(=O)N[C@@H](CC(N)=O)C(=O)N[C@@H]([C@@H](C)O)C(=O)N[C@@H](C)C(=O)N[C@@H]([C@@H](C)O)C(=O)N1)[C@@H](C)O)C(=O)N[C@@H](CC(C)C)C(=O)N1CCC[C@H]1C(=O)N1CCC[C@H]1C(=O)N[C@H](C(=O)N[C@@H](CC(N)=O)C(=O)N[C@H](C(=O)NCC(=O)N[C@@H](CO)C(=O)N[C@@H](CC(N)=O)C(=O)N[C@H](C(=O)N1CCC[C@H]1C(N)=O)[C@@H](C)O)C(C)C)[C@@H](C)O [Example 53, N-alpha-[(S)-4-Carboxy-4-(19-carboxynonadecanoylamino)butyryl]-[Glu14,Arg17,Pro37]-pramlintide] | >45 h | >45 h | 40% | 28% | – | –
